Here are results for 8 compounds from patent US11725001B2, “Bicyclic compound and use thereof” (SK BIOPHARMACEUTICALS CO., LTD., priority 2019, dated 2023).

pIC50: −log10 of the molar value.

PRMT5-MEP50 enzyme complex, sequence (O14744 2-637): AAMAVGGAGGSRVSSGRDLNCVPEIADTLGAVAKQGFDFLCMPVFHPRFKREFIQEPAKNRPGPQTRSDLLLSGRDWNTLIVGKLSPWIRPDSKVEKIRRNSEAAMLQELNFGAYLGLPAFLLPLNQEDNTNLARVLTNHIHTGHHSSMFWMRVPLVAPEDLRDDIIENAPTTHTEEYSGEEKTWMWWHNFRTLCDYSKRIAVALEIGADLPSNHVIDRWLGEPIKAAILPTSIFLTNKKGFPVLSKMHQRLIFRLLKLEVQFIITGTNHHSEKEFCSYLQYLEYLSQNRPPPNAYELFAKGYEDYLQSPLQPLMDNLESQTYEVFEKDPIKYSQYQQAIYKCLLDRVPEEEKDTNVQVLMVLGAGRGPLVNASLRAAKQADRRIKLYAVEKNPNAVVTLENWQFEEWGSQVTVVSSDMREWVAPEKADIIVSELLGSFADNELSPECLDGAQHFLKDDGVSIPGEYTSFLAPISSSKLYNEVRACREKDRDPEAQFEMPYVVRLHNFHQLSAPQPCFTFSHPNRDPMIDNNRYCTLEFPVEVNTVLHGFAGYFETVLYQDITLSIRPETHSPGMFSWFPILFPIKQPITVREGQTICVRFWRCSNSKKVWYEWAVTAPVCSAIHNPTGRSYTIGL
PRMT5-MEP50 enzyme complex, sequence (Q9BQA1 2-342 partner): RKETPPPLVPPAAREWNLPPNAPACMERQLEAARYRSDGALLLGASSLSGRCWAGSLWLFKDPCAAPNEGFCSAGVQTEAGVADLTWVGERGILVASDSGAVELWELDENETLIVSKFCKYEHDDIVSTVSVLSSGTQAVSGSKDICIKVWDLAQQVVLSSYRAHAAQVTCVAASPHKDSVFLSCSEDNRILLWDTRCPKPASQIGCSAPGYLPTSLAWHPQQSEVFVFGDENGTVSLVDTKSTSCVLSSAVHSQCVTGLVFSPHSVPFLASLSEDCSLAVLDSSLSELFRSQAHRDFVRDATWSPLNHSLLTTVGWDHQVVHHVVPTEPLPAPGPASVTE

One assay deals with SDMA levels in U87MG tumor. As to the kind of experiment: Test for in vivo target inhibitory activity (SDMA levels in U87MG tumor). The conditions noted are these: U87MG tumor implanted subcutaneously in nude mice, oral 25 or 50 mg/kg 1-2 times daily for one week. As to the method:
Test for In Vivo Target Inhibitory Activity
After U87MG tumor cells were implanted subcutaneously in nude mice, a PRMT5 inhibitor was administered orally (25 or 50 mg/kg) 1-2 times daily for one week, and then the degree to which SDMA levels in the tumor decreased was measured.
Reagents: Bradford's solution (Catalog No. 500-0006) was purchased from Bio-rad (USA). SDMA antibody (Catalog No. 13222s) was purchased from Cell Signaling Technology (USA). SmD3 antibody (Catalog No. ap12451a) was purchased from Abgent (USA), and secondary antibody (Catalog No. ab6721) and TMB substrate (Catalog No. ab210902) were purchased from Abcam (UK).
Experimental procedure: The tumor tissues transplanted into the mice were excised, the cells were lysed, and then quantified with Bradford's solution. 5-10 μg of protein per sample was diluted with carbonate-bicarbonate buffer and dispensed into a 96-well plate and reacted at room temperature for 2 hours. After washing with phosphate buffered saline (PBST) containing 0.05% Tween-20 3 times, 200 μL of PBST containing 5% bovine serum albumin (BSA-PBST) was added and reacted at room temperature for 2 hours. After washing with PBST 3 times, the SDMA antibody and the SmD3 antibody were diluted in BSA-PBST, and 100 μL of each was dispensed onto the plate and reacted at 4° C. overnight. After washing with PBST 3 times the next day, 100 μL of the secondary antibody diluted in BSA-PBST was added and reacted at room temperature for 1 hour. After washing with PBST 3 times, 100 μL of TMB substrate was added and reacted at room temperature for 10-20 minutes, and 100 μL of 1N sulfuric acid solution was added to terminate the reaction. Then, the absorbance at 450 nm was measured to calculate the degree of SDMA inhibition by the compound. (+++: more than 70%, ++: more than 30% and 70% or less, +: 30% or less)
For the compound `O=C1c2ccc(CN3CCOCC3)cc2OCCN1C[C@H](O)CN1CCc2ccccc2C1` [Example 22, 4-[(2R)-3-(3,4-dihydro-1H-isoquinolin-2-yl)-2-hydroxy-propyl]-8-(morpholinomethyl)-2,3-dihydro-1,4-benzoxazepin-5-one], the “SDMA inhibition (%)” value is given as “+++ (+++: more than 70%)”. In the case of `CN1CCC(Oc2ccc3c(c2)OCCN(C[C@H](O)CN2CCc4ccccc4C2)C3=O)CC1` [Example 87, 4-[(2R)-3-(3,4-dihydro-1H-isoquinolin-2-yl)-2-hydroxy-propyl]-8-[(1-methyl-4-piperidyl)oxy]-2,3-dihydro-1,4-benzoxazepin-5-one], the “SDMA inhibition (%)” value was “+++ (+++: more than 70%)”. On the same count and under the same terms, the result for `CCN1CCC(Oc2ccc3c(c2)OCCN(C[C@H](O)CN2CCc4ccccc4C2)C3=O)CC1` [Example 88, 4-[(2R)-3-(3,4-dihydro-1H-isoquinolin-2-yl)-2-hydroxy-propyl]-8-[(1-ethyl-4-piperidyl)oxy]-2,3-dihydro-1,4-benzoxazepin-5-one] reads “+++ (+++: more than 70%)”; that for `O=C1c2ccc(OC3CCN(C4COC4)CC3)cc2OCCN1C[C@H](O)CN1CCc2ccccc2C1` [Example 92, 4-[(2R)-3-(3,4-dihydro-1H-isoquinolin-2-yl)-2-hydroxy-propyl]-8-[[1-(oxetan-3-yl)-4-piperidyl]oxy]-2,3-dihydro-1,4-benzoxazepin-5-one], “+++ (+++: more than 70%)”; that for `CN1CCC(Oc2ccc3c(c2)OC(C)(C)CN(C[C@H](O)CN2CCc4ccccc4C2)C3=O)CC1` [Example 112, 4-[(2R)-3-(3,4-dihydro-1H-isoquinolin-2-yl)-2-hydroxy-propyl]-2,2-dimethyl-8-[(1-methyl-4-piperidyl)oxy]-3H-1,4-benzoxazepin-5-one], “+++ (+++: more than 70%)”. Regarding `O=C1c2ccc(Br)cc2CCCN1C[C@H](O)CN1CCc2ccccc2C1` [Example 155, 7-bromo-2-[(2R)-3-(3,4-dihydro-1H-isoquinolin-2-yl)-2-hydroxy-propyl]-4,5-dihydro-3H-2-benzazepin-1-one], the “SDMA inhibition (%)” value is reported as “+ (+: 30% or less)”.

Another assay concerns the target PRMT5-MEP50 enzyme complex (Homo sapiens (Human), UniProt O14744). The experiment in a line: PRMT5 enzyme activity in vitro assay (methylation of histone H4R3, ELISA absorbance at 450 nm). In kind it is biochemical. The following applies: SAM, histone H4 peptide, 2 hours at room temperature, 8 points from 10 μM to 0.128 nM. (ELISA stands for enzyme-linked immunosorbent assay.)
Experimental: Method for Measuring Enzyme Activity
In vitro assay: PRMT5-MEP50 enzyme complex, cofactor S-adenosylmethionine (SAM) and histone H4 peptide were reacted in vitro, and methylation of arginine (H4R3)—which is the third amino acid of histone H4—was measured in order to measure the enzyme activity of PRMT5.
S-adenosylmethionine was purchased from NEB (New England Biolabs, USA, Catalog No. B9003S).
Experimental procedure: The histone H4 peptide was diluted with carbonate-bicarbonate buffer and prepared to 100 μg/mL, and then dispensed onto the plate per 100 μL and reacted at 37° C. for 1 hour. PRMT5-MEP50 enzyme complex and S-adenosylmethionine were diluted with histone methyltransferase reaction buffer to prepare 5 μg/mL and 2 μM, respectively, and then 20 μL of PRMT5-MEP50 enzyme complex and 25 μL of S-adenosylmethionine were dispensed onto the plate prepared above. 5 μL of the compound diluted with 10% dimethyl sulfoxide solution was added thereto and reacted at room temperature for 2 hours (final volume=50 μL). […] After preparing the primary antibody by diluting 1:2000 with blocking buffer, 100 μL was added to the plate and reacted at room temperature for 1 hour. […] Then, the absorbance at 450 nm was measured to calculate the IC50 value of the compound. […]
In turn, `COc1ccc2c(c1)OCCN(CC(O)CN1CCc3ccccc3C1)C2=O` (centres unmarked) [Example 1, 4-[3-(3,4-dihydro-1H-isoquinolin-2-yl)-2-hydroxy-propyl]-8-methoxy-2,3-dihydro-1,4-benzoxazepin-5-one] gave a pIC50 of 6.00 to 7.00.

`CCN1C(=O)CN(C[C@H](O)CN2CCc3ccccc3C2)C(=O)c2ccc(Br)cc21` [Example 158, 8-bromo-4-[(2R)-3-(3,4-dihydro-1H-isoquinolin-2-yl)-2-hydroxy-propyl]-1-ethyl-3H-1,4-benzodiazepin-2,5-dione] had a pIC50 of 6.00 to 7.00.

The pIC50 is the IC50 on a negative log10 scale, so that one unit is a factor of ten. Read a low pIC50 as a large IC50.
